Experimental data as given in patent publication US4946838A, “Crystalline anhydrous aztreonam” (priority 1986, dated 1990).
“Also recorded” adds a separate entry of the source. Read-outs that look alike come from different tables or passages of the source.

Columns and labels:
[1] = Differential Scanning Calorimetry (DSC), peak temperatures; assay type: physicochemical
[2] = Hydration (water content) of crystalline forms; assay type: physicochemical; conditions: for Hydration: in words
[3] = Powder properties (density, surface area, flowability); assay type: physicochemical; conditions: in words
[4] = Intrinsic Dissolution Rate; assay type: physicochemical; conditions: in words
[5] = Crystallinity and morphology (microscopy, X-ray diffraction); assay type: physicochemical
[6] = Hygroscopicity (Equilibrium Moisture Content and rate); assay type: physicochemical; conditions: for Hygroscopicity: Rate: in words
[7] = compared with α-form or simple salts; powder for reconstitution

Compound	Hydration, water content [2]	Hydration [2]	Density [3]	Flowability [3]	Surface Area [3]	Intrinsic Dissolution Rate [4]	Morphology [5]	Crystallinity: X-ray diffraction [5]	Crystallinity: Microscopy [5]	Hygroscopicity: EMC (Equilibrium Moisture Content) [6]	Hygroscopicity: Rate [6]	also measured
C[C@H]1[C@H](NC(=O)/C(=N\OC(C)(C)C(=O)O)c2csc(N)n2)C(=O)N1S(=O)(=O)O [α-Form, [3S-[3α(Z),4β]]-3-[[(2-amino-4-thiazolyl)[(1-carboxy-1-methylethoxy)imino]acetyl]amino]-4-methyl-2-oxo-1-azetidinesulfonic acid]	7-14 % water	Hydrous	low	poor	high	slow	needles or rods	crystalline	birefringent	0-14%	rapid	DSC, peak temperature, exotherm ([1]; decomp.): 200 °C; DSC, peak temperature, endotherm ([1]; dehydration): 107 °C
C[C@H]1[C@H](NC(=O)/C(=N\OC(C)(C)C(=O)O)c2csc(N)n2)C(=O)N1S(=O)(=O)O [β-Form, [3S-[3α(Z),4β]]-3-[[(2-amino-4-thiazolyl)[(1-carboxy-1-methylethoxy)imino]acetyl]amino]-4-methyl-2-oxo-1-azetidinesulfonic acid]	0-1 % water	Anhydrous	high	good	low	fast	spiny fused spherulites	crystalline	birefringent	0-3%	slow	DSC, peak temperature, exotherm ([1]; decomp, when crystallized from absolute ethanol): 228 °; DSC, peak temperature, exotherm ([1]; decomp, when crystallized from absolute methanol): 238 °; DSC, endotherm ([1]; in words): none; Hydration ([2]; listed as β-form): anhydrous; Shelf life [7]: greater than that of the α-form, or for that matter simple salts of the compound; Density ([3]; listed as β-form): dense; Hygroscopicity [6]: nonhygroscopic; also recorded: substantially non-hygroscopic; Hygroscopicity ([6]; listed as crystalline, anhydrous form): substantially non-hygroscopic
